Source: patent US12521419B2, “Use of anti-aging glycopeptides to enhance pancreatic cell health, survival and improve transplant outcome” (Protokinetix Inc., priority 2014, dated 2026)

Experiments:
mouse splenocytes = assay: Allogeneic mixed lymphocyte reaction, T cell proliferation by CFSE staining; format: cell-based; conditions: vs IgG control, n=4
Description: The assay measures T cell proliferative response by levels of CFSE staining.

human islets [1] = assay: Intra-islet calcium concentration; format: cell-based; conditions: Tac−, Tac+AAGP groups
Description: Various electrophysiology studies were performed on human islets to elucidate a potential mechanism of action for the AAGP™ by characterizing the CNI-related injury and its avoidance.

human islets [2] = assay: Kidney subcapsular minimal mass islet transplant in Rag1 mice (Example 3); format: in vivo, immunodeficient mice (Rag1); conditions: ~1000 IEQ, islets cultured 24 h with AAGP 3 mg/mL, n=4 & 5
Description: Two research-grade human islet preparations are cultured for 24 hours in the following groups: • 1) AAGP™+ supplemented islets cells; and • 2) Control (non-supplemented islets)
Islets are cultured in humidified atmosphere of 95% air and 5% CO2 at 37° C., at a density of 200 IE/mL using standard tissue culture flask. AAGP™ concentration is 3 mg/mL. After 24 h, kidney subcapsular islet transplant is performed on immunodeficient mice (Rag1) with minimal islet mass (˜1000 IEQ) to assess transplant efficacy (n=4 & 5, control and AAGP™ respectively).

human islets [3] = assay: Viability by fluorescent membrane integrity assay (syto green/ethidium bromide); format: cell-based; conditions: AAGP 3 mg/mL, 24 hr culture, vs non-supplemented control
Description: After 24 hr of culture, islets are assessed for recovery, viability and function. Recovery rate is calculated as the percentage of surviving islets after 24 hr culture in comparison to the initial count for each condition. Viability is assessed using a fluorescent membrane integrity assay with counter-stains syto green/ethidium bromide (Cedarlane Laboratories, Burlington, ON, and Sigma-Aldrich, ON) (Islet isolation for clinical transplantation. In: Shahidul. M, (ed). The islets of Langerhans. New York: Springer, 2010; Ranuncoli A, et al. Cell transplantation 2000; 9(3):409-414; Ricordi C. et al. Acta diabetologica latina 1990; 27(3):185-195; and Barnett M J et al. Cell transplantation 2004; 13(5):481-488).

human islet cells [4] = assay: Initial characterization of human islets cultured 24 hours (Example 1); format: cell-based; conditions: AAGP 3 mg/mL
Description: Research-grade human islet preparations are cultured for 24 hours in the following groups: • 1) AAGP™ supplemented islets cells; and • 2) Controls (non-supplemented islets cells).
(§1) Islets are cultured in humidified atmosphere of 95% air and 5% CO2 at 37° C., at a density of 200 IE/mL using standard tissue culture flask. The AAGP™ concentration is 3 mg/mL. Several tests are conducted on day 1 post-islet isolation, including: Islet recovery, membrane integrity viability stain (Syto® EB) as well as Glucose-Stimulated Insulin Release.

human islets [5] = assay: Extracellular ROS in culture media, Acridan Lumigen PS-3 assay; format: cell-based; conditions: media 24 hr after tacrolimus exposure, ± AAGP
Description: Frozen samples from all groups are utilized to determine reactive oxygen species (ROS) in the culture media, using the Acridan Lumigen™ PS-3 assay (Amershan ECL Plus kit, Fisher Scientific Inc. Ottawa, ON, Canada) (18). In this assay Acridan Lumigen™ PS-3 is excited by reactive oxygen and nitrogen species (RNS) in the presence of hydrogen peroxide, producing chemiluminescense at 430 nm. Media samples are flash-frozen with liquid nitrogen and stored until the assay is performed. CMRL culture media alone is used as a control, and results are expressed as fold-change increase compared to the control media.

human islet cells [6] = assay: Protection of human islets from tacrolimus toxicity (Example 2); format: cell-based; conditions: AAGP 3 mg/mL
Description: Research-grade human islet preparations are cultured for 48 hours in the following groups: • 1) No tacrolimus (Tac−) treated beta islet cells; • 2) Tracrolimus (Tac+) treated beta islet cells; and • 3) Tacrolimus (Tac+) treated+AAGP™ supplementation beta islet cells.
After 48 h, tacrolimus ([…]) was added to group 2 and 3.
as §1, with “flask.” for “flask. The”, “D1” for “day 1”, “(Syto” for “(Syto®”, “Glucose-stimulated” for “Glucose-Stimulated”

[7] = Solubility and stability of AAGP in media; format: physicochemical
human islets [8] = assay: Glucose-stimulated insulin secretion (GSIS) perifusion assay; format: cell-based; conditions: AAGP 3 mg/mL, 24 hr culture
Description: Islet secretory function is assessed by monitoring in vitro insulin secretory profile during continuous glucose stimulation, as described by Cabrera et al Cell transplantation 2008;16(10):1039-1048. This in vitro perifusion assay is a modality of continuous Glucose-Stimulated Insulin Secretion (GSIS) test to stress islets in alternating normoglycemic and hyperglycemic environment to model physiological islet response. Supernatants from the perifusion assay are collected and insulin levels are determined using a commercially available ELISA kit (Insulin ELISA kit. Mercodia Inc. Pittsburgh, PA, USA). Results are expressed as fold-change of insulin secretion compared to the low (2.8 mMol) glucose stimulation baseline, normalized for 100 IEQ.

[9] = tested on: syngeneic islet transplant; assay: Syngeneic full mass islet transplant with continuous tacrolimus treatment; format: in vivo, mouse; conditions: AAGP in culture media 1 hour prior to transplant; tacrolimus 1 mg/kg/day by osmotic pump
Description: FIG. 11 illustrates the post-transplant graft function in immunodefficient mice receiving minimal human islet mass (˜1000 IEQ). Islets were previously treated with AAGP™ and tracrolimus accordingly. […] The dotted line indicates graft recovery nephrectomy on day 60. B. Intraperitoneal glucose tolerance test (IPGTT) to evaluate metabolic response after receiving a glucose bolus. C. Insulin content of removed grafts after 60 days of transplant as an indication of residual islet mass. Data points represent mean±SEM adjusted per gram of tissue, (Tac− n=6, Tac+ n=3 and Tac+AAGP™ n=7), *p<0.05, **p<0.01 and ***p<0.001. D and E. Post-transplant graft function in mice receiving syngeneic full mass (˜500 IEQ) islet transplant. AAGP™ was added to the culture media 1 hour prior to transplant and tacrolimus was administered via a subcutaneous osmotic pump (implanted during the same procedure) at a continuous rate of 1 mg/kg/day. D. Pooled blood glucose profiles of animal over 40 days with clear dysfunction for Tac+ islets during the presence of Tac. Vertical dotted line indicates tacrolimus treatment cessation and marks a gradual recovery of Tac+ grafts. Horizontal continuous line at y=11 indicates the normoglycemia limit. Graft recovery nephrectomy was again performed on day 30. E. Mean time-to-euglycemia after transplant showing Tac+AAGP™ mice reversing diabetes earlier (p<0.001, log-rank, Mantel-cox test). […] These differences were not observed in the Tac+AAGP™ group.
To further support these findings a transplant experiment was performed in a syngeneic diabetic mouse transplant model with continuous treatment with tacrolimus to resemble clinical practice.
To make our experiments more clinically relevant, a new in vivo syngeneic mouse transplant model was performed, with tacrolimus as a continuous treatment by means of a subcutaneous osmotic pump. It was observed that the functional impairment of transplanted islets occurred immediately after starting administration of the CNI and lasted during the entire treatment period (7 days).

- solubility ([7]; all media): highly soluble in all media
- stability ([7]; compared to natural AFP): more stable
Structure (SMILES): C[C@H](NC(=O)[C@H](C)NC(=O)[C@@H](N)CCCCNC(=O)C(F)(F)C1(O)O[C@H](CO)[C@H](O)[C@H](O)[C@H]1O)C(=O)O (stereo partly shown) [AAGP™]
- T cell proliferation (CD8+ and CD4+) (mouse splenocytes): no significant decrease in proliferation of T cells
- calcium concentration in islets (human islets [1]): neither tacrolimus nor AAGP™ affected the calcium concentration
- transplant outcome with minimal islet mass (human islets [2]): inconclusive
- cellular viability per membrane integrity assay (human islets [3]): no differences in cellular viability
- toxicity on human islet cells (human islet cells [4]): no toxicity
- islet survival in culture (human islet cells [4]; 24 hours): seems to enhance islet survival in culture
- extracellular ROS (fold-increase vs control media) (human islets [5]): ameliorated
- protection of islets exposed to tacrolimus in vitro (human islet cells [6]): protects islet exposed to tacrolimus in vitro
- insulin secretion during the second secretory phase (perifusion curves) (human islets [8]; vs control): significant increase in insulin secretion
- GSIS perifusion area under the curve (insulin release) (human islets [8]; control 75.5±0.5): 149.5±0.5
- graft function / period to achieve euglycemia [9]: period to achieve euglycemia was similar to the control group
